Test results published in ChEMBL document CHEMBL1201862, “PubChem BioAssay data set” (2004).
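Briefly, cells in 96-well plates were exposed to five compound concentrations for 48 h, and endpoints were estimated by linear interpolation. Here, GI50 denotes the concentration required for 50% inhibition of growth.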 Calls of active or inactive are those of the source. Rule as the data show it: active = GI50 up to about 1.1 µM and inactive = higher.

Key:
Assay in all cases: NCI-60 cell line screen, 48 h
786-0 = test system: 786-0
A549 = test system: A549
BT-549 = test system: BT-549
CCRF-CEM = test system: CCRF-CEM
EKVX = test system: EKVX
HL-60 = test system: HL-60
IGROV-1 = test system: IGROV-1
K562 = test system: K562
MCF7 = test system: MCF7
MDA-MB-435 = test system: MDA-MB-435
MDA-N = test system: MDA-N
MOLT-4 = test system: MOLT-4
OVCAR-3 = test system: OVCAR-3
OVCAR-5 = test system: OVCAR-5
SF-539 = test system: SF-539
SK-MEL-28 = test system: SK-MEL-28
SK-OV-3 = test system: SK-OV-3
SW-620 = test system: SW-620
TK-10 = test system: TK-10
UO-31 = test system: UO-31

| Compound | GI50 (786-0) | GI50 (A549) | GI50 (BT-549) | GI50 (CCRF-CEM) | GI50 (EKVX) | GI50 (HL-60) | GI50 (IGROV-1) | GI50 (K562) | GI50 (MCF7) | GI50 (MDA-MB-435) | GI50 (MDA-N) | GI50 (MOLT-4) | GI50 (OVCAR-3) | GI50 (OVCAR-5) | GI50 (SF-539) | GI50 (SK-MEL-28) | GI50 (SK-OV-3) | GI50 (SW-620) | GI50 (TK-10) | GI50 (UO-31) |
| --- | --- | --- | --- | --- | --- | --- | --- | --- | --- | --- | --- | --- | --- | --- | --- | --- | --- | --- | --- | --- |
| O=C(O)c1nn(-c2ccc(Cl)cc2)c2c1C(=O)c1ccccc1C2=O | > 100 µM (inactive) | > 100 µM (inactive) | > 100 µM (inactive) | < 0.01 µM (active) | > 100 µM (inactive) | > 100 µM (inactive) | > 100 µM (inactive) | > 100 µM (inactive) | > 100 µM (inactive) | > 100 µM (inactive) | > 100 µM (inactive) | 22 µM (inactive) | 24.7 µM (inactive) | > 100 µM (inactive) | 30.2 µM (inactive) | > 100 µM (inactive) | > 100 µM (inactive) | > 100 µM (inactive) | > 100 µM (inactive) | > 100 µM (inactive) |
| O=C(O)CSSCC(=O)O | > 100 µM (inactive) | > 100 µM (inactive) | > 100 µM (inactive) | > 100 µM (inactive) | > 100 µM (inactive) | > 100 µM (inactive) | > 100 µM (inactive) | > 100 µM (inactive) | > 100 µM (inactive) | > 100 µM (inactive) | > 100 µM (inactive) | > 100 µM (inactive) | > 100 µM (inactive) | > 100 µM (inactive) | > 100 µM (inactive) | > 100 µM (inactive) | > 100 µM (inactive) | > 100 µM (inactive) | > 100 µM (inactive) | > 100 µM (inactive) |
| CS(=O)(=O)N1CC(CCl)c2ccc([N+](=O)[O-])cc21 (configuration not stated) | > 100 µM (inactive) | > 100 µM (inactive) | > 100 µM (inactive) | > 100 µM (inactive) | > 100 µM (inactive) | > 100 µM (inactive) | > 100 µM (inactive) | > 100 µM (inactive) | > 100 µM (inactive) | > 100 µM (inactive) | > 100 µM (inactive) | > 100 µM (inactive) | > 100 µM (inactive) | > 100 µM (inactive) | > 100 µM (inactive) | > 100 µM (inactive) | > 100 µM (inactive) | > 100 µM (inactive) | > 100 µM (inactive) | > 100 µM (inactive) |
| CC1CNC(NS(=O)(=O)c2cc(C(=O)Nc3ccccc3)c(Cl)cc2S)=NN1 (configuration not stated) | 92.3 µM (inactive) | 33.7 µM (inactive) | 97.3 µM (inactive) | 32.8 µM (inactive) | > 100 µM (inactive) | 66.2 µM (inactive) | 6.24 µM (inactive) | 35.2 µM (inactive) | 36.5 µM (inactive) | 17.7 µM (inactive) | 24.9 µM (inactive) | 49.8 µM (inactive) | 41.4 µM (inactive) | 27.2 µM (inactive) | 38.4 µM (inactive) | 45.3 µM (inactive) | 81.5 µM (inactive) | 40.6 µM (inactive) | > 100 µM (inactive) | 77.8 µM (inactive) |
| CC(=O)OCC1OC(OCCCOP(=O)(OCCC#N)OCC2OC(n3cnc4c(N)ncnc43)C(OC(=O)c3ccccc3)C2OC(=O)c2ccccc2)C(OC(C)=O)C(OC(C)=O)C1OC(C)=O (configuration not stated) | > 100 µM (inactive) | > 100 µM (inactive) | > 100 µM (inactive) | > 100 µM (inactive) | > 100 µM (inactive) | > 100 µM (inactive) |  | > 100 µM (inactive) | > 100 µM (inactive) | > 100 µM (inactive) | > 100 µM (inactive) | > 100 µM (inactive) | > 100 µM (inactive) | > 100 µM (inactive) | > 100 µM (inactive) | > 100 µM (inactive) | > 100 µM (inactive) | > 100 µM (inactive) | > 100 µM (inactive) | > 100 µM (inactive) |
| COc1ccc(/C=N/NC(=O)C2=C(N)N(c3ccccc3)C(=C(C#N)C#N)S2)cc1 | 62.5 µM (inactive) | > 100 µM (inactive) | > 100 µM (inactive) | > 100 µM (inactive) | > 100 µM (inactive) | > 100 µM (inactive) | > 100 µM (inactive) | > 100 µM (inactive) | > 100 µM (inactive) | > 100 µM (inactive) | > 100 µM (inactive) | > 100 µM (inactive) | 60.4 µM (inactive) | > 100 µM (inactive) | 48.1 µM (inactive) | > 100 µM (inactive) | 57 µM (inactive) | > 100 µM (inactive) | > 100 µM (inactive) | > 100 µM (inactive) |
| CCOC(=O)C(CCN1CCC2(CC1)C(=O)N(C)CN2c1ccccc1)C(=O)OCC | > 100 µM (inactive) | > 100 µM (inactive) | > 100 µM (inactive) | > 100 µM (inactive) | > 100 µM (inactive) | > 100 µM (inactive) | > 100 µM (inactive) | > 100 µM (inactive) | > 100 µM (inactive) | > 100 µM (inactive) | > 100 µM (inactive) | > 100 µM (inactive) | > 100 µM (inactive) | > 100 µM (inactive) | > 100 µM (inactive) | > 100 µM (inactive) | > 100 µM (inactive) | > 100 µM (inactive) | > 100 µM (inactive) | > 100 µM (inactive) |
| CC(C)CC1NC(=O)CCC(NC(=O)C(Cc2ccc(O)cc2)NC(=O)OCc2ccccc2)C(=O)NC(Cc2ccccc2)C(=O)NC(Cc2ccccc2)NC1=O (configuration not stated) | > 100 µM (inactive) | > 100 µM (inactive) | > 100 µM (inactive) | > 100 µM (inactive) | > 100 µM (inactive) | > 100 µM (inactive) | > 100 µM (inactive) | > 100 µM (inactive) | > 100 µM (inactive) | > 100 µM (inactive) | > 100 µM (inactive) | > 100 µM (inactive) | > 100 µM (inactive) | > 100 µM (inactive) | > 100 µM (inactive) | > 100 µM (inactive) | 0.578 µM (active) | > 100 µM (inactive) | > 100 µM (inactive) | > 100 µM (inactive) |
| O=C1C=C(c2ccccc2)O/C1=C\C(=O)c1ccc(Cl)cc1 | 14.3 µM (inactive) |  | 12.5 µM (inactive) |  | > 100 µM (inactive) | 2.18 µM (inactive) | 17.1 µM (inactive) | 22.2 µM (inactive) | 17.3 µM (inactive) | 15.8 µM (inactive) | 23.6 µM (inactive) | 20.5 µM (inactive) | 22.1 µM (inactive) | 24.3 µM (inactive) | 57.7 µM (inactive) | 19.9 µM (inactive) | 98.4 µM (inactive) | 1.73 µM (inactive) | 20.1 µM (inactive) | 20.7 µM (inactive) |
| CC(Oc1ccccc1Cl)C(=O)NN1C(=O)CC(=O)NC1=S (configuration not stated) | > 100 µM (inactive) | > 100 µM (inactive) | > 100 µM (inactive) |  | > 100 µM (inactive) | 9.23 µM (inactive) | > 100 µM (inactive) | 9.53 µM (inactive) | > 100 µM (inactive) | > 100 µM (inactive) | > 100 µM (inactive) | > 100 µM (inactive) | > 100 µM (inactive) | > 100 µM (inactive) | > 100 µM (inactive) | > 100 µM (inactive) | > 100 µM (inactive) | > 100 µM (inactive) | > 100 µM (inactive) | 92.5 µM (inactive) |
| CCCCCCCCCCCCCOCCOCCOCCCCC(O)CCCCCCCCCC1=C[C@H](C)OC1=O (some centres not stated) | 17.6 µM (inactive) | 7.55 µM (inactive) | 11.1 µM (inactive) | 9.86 µM (inactive) |  | 0.356 µM (active) | 18.1 µM (inactive) | 21.2 µM (inactive) | 10.1 µM (inactive) | 16.9 µM (inactive) | 15 µM (inactive) | 7.59 µM (inactive) | 18.6 µM (inactive) | 28 µM (inactive) | 18.7 µM (inactive) | 11.4 µM (inactive) | 31.8 µM (inactive) | 16.4 µM (inactive) | 2.94 µM (inactive) | 16 µM (inactive) |
| C=C1C(=O)OC2C3C(=C)[C@@H](OC(C)=O)CC3C(C)=CC(OC(=O)C(C)(O)C(C)OC(C)=O)[C@@H]12 (some centres not stated) | 11.5 µM (inactive) | 26.2 µM (inactive) | 13.6 µM (inactive) | 2.84 µM (inactive) | 16.1 µM (inactive) | 2.55 µM (inactive) | 7.36 µM (inactive) | 3.35 µM (inactive) | 10.7 µM (inactive) | 8.93 µM (inactive) | 5.82 µM (inactive) | 3.04 µM (inactive) | 9.82 µM (inactive) | 11.9 µM (inactive) | 13.8 µM (inactive) | 14 µM (inactive) | 80.9 µM (inactive) | 2.88 µM (inactive) | 3.99 µM (inactive) | 12.4 µM (inactive) |
| O=C1c2ccccc2-c2nc(-c3cccc([N+](=O)[O-])c3)nnc21 | 30.5 µM (inactive) | 4.62 µM (inactive) | 19.5 µM (inactive) | 7.14 µM (inactive) | 7.38 µM (inactive) | 3.07 µM (inactive) | 28.8 µM (inactive) | 5.94 µM (inactive) | 11.4 µM (inactive) | 1.97 µM (inactive) | 2.54 µM (inactive) | 9.73 µM (inactive) |  | 20.1 µM (inactive) | 22.6 µM (inactive) |  | > 100 µM (inactive) | 15.8 µM (inactive) | 18.7 µM (inactive) | 12.3 µM (inactive) |
| C[n+]1c(-c2ccc(/C=N/NC(=O)C(=O)N/N=C/c3ccc(-c4cn5ccccc5[n+]4C)cc3)cc2)cn2ccccc21 | > 100 µM (inactive) | > 100 µM (inactive) | > 100 µM (inactive) | > 100 µM (inactive) | > 100 µM (inactive) | > 100 µM (inactive) | > 100 µM (inactive) | > 100 µM (inactive) | > 100 µM (inactive) | > 100 µM (inactive) | > 100 µM (inactive) | > 100 µM (inactive) | 45.9 µM (inactive) | > 100 µM (inactive) | > 100 µM (inactive) |  | > 100 µM (inactive) | > 100 µM (inactive) | 56.6 µM (inactive) | > 100 µM (inactive) |
